# Measured values from PMC10641236, “Influenza A virus replication has a stronger dependency on Raf/MEK/ERK signaling pathway activity than SARS-CoV-2” (Frontiers in Cellular and Infection Microbiology, 2023).
# Read-outs that look alike come from different tables or passages of the source.
# Experiments:
# [1] = system: SARS-CoV-2 B.1 isolate “FI”; parameters: method as in Schreiber et al., 2022; conditions: ref Schreiber et al., 2022, read-out: EC50 value against SARS-CoV-2; cited from earlier work
# [2] = system: SARS-CoV-2; assay type: cell-based; conditions: 100 µM, Caco-2 cells, MOI 4, 10 h
# [3] = system: SARS-CoV-2 N; assay type: cell-based; conditions: MOI 0.01, 24 h; for reduction of SARS-CoV-2 N (N/ERK2 normalized to solvent control): both cell lines
# [4] = system: IBV Lee; parameters: method as in Laure et al., 2020; conditions: medium containing 0.2% BSA, ref Laure et al., 2020; cited from earlier work
# [5] = system: TMPRSS2; assay: TMPRSS2 expression by flow cytometry; assay type: cell-based, Homo sapiens; conditions: Caco-2 cells, 24 h
# Procedure: For flow cytometry analysis, 6 × 10^5 Caco-2 cells were seeded per well in six-well plates (Greiner Bio-One, Kremsmünster, Austria) and incubated for 24 h at 37°C, 5% CO2. Treatment with zapnometinib or a solvent control (1% DMSO) in medium containing 0.2% BSA was applied for 24 h. A single-cell solution was prepared using TrypLE reagent (Thermo Fisher Scientific, Waltham, MA, USA). Prior to staining, cells were treated with an FcR blocking reagent (Miltenyi Biotec, Bergisch Gladbach, Germany) for 10 min at 4°C. The cells were then stained with either a PE Mouse IgG1Isotype control antibody (BioLegend, San Diego, CA, USA) or a PE anti-human TMPRSS2 Antibody (BioLegend, San Diego, CA, USA), followed by a live-dead staining using the LIVE/DEAD™ Fixable Far Red Dead Cell Stain Kit (Thermo Fisher Scientific, Waltham, MA, USA). Cells were analyzed using the BD FACSCanto II flow cytometer (Becton Dickinson, Franklin Lakes, New Jersey, USA) and the FlowJo software (Becton Dickinson, Franklin Lakes, New Jersey, USA).
# [6] = system: COVID-19; conditions: hospitalized COVID-19 patients; ref ClinicalTrials.gov NCT04776044; cited from earlier work
# [7] = system: MEK1/2 (ERK1/2 phosphorylation); assay: IC50 determination in the absence of viral infection, TNF-α-stimulated cells, pERK/ERK ratio by WES; assay type: cell-based; conditions: Homo sapiens, TNF-α 30 min then 1 h treatment, no virus
# Procedure: Cells were lysed using cold modified RIPA buffer [0.24% (w/v) tris base (Sigma-Aldrich, St. Louis, Missouri, USA), 0.88% (w/v) NaCl (Carl Roth, Karlsruhe, Germany), 0.2% (v/v) 500 mM ethylenediaminetetraacetic acid (EDTA) (Sigma-Aldrich, St. Louis, Missouri, USA), 1% (v/v) Triton X-100 (Sigma-Aldrich, St. Louis, Missouri, USA), 0.5% (w/v) sodium deoxycholate (Sigma-Aldrich, St. Louis, Missouri, USA), 0.1% (w/v) sodium dodecyl sulfate (SDS) (Carl Roth, Karlsruhe, Germany), 10% (v/v) glycerol (Carl Roth, Karlsruhe, Germany), 0.05% phenylmethylsulfonyl fluoride (PMSF) (Carl Roth, Karlsruhe, Germany), 0.01% Benzonase® Nuclease (Sigma-Aldrich, St. Louis, Missouri, USA), protease inhibitor cocktail (Roche, Basel, Switzerland), and phosphatase inhibitor cocktail (Roche, Basel, Switzerland) in water]. Determination of the protein concentration was performed using the Pierce™ BCA Protein Assay Kit (Thermo Fisher Scientific Inc., Waltham, MA, USA) according to the manufacturer’s instructions. The samples were analyzed by Wes™ using a total protein concentration of 0.25–0.5 µg/µL for each sample, the Jess/Wes Separation kit (12–230 kDa), primary antibodies against ERK1/2, p44/42 MAPK (137F5) Rabbit mAb (Cell Signaling Technology, Danvers, MA, USA, Cat. No. 4695S) and phospho-ERK1/2 (pERK1/2), Phospho-p44/42 MAPK (Erk1/2) (Thr202/Tyr204) (D13.14.4E), XP® Rabbit mAb (Cell Signaling Technology, Danvers, MA, USA, Cat. no. 4370S) in a 1:50 dilution, anti-Influenza A virus Nucleoprotein (NP) antibody (rabbit MAb) (Sino Biological, Beijing, China Cat.no 40208-R010) in a 1:150 dilution, SARS-CoV-2 nucleocapsid protein antibody (ProSci Inc., Poway, CA, USA, Cat. no. 35-580) in a 1:100 dilution, the anti-goat, anti-rabbit, and anti-mouse detection modules, and the EZ Standard Pack 1 (12–230 kDa), according to the manufacturer’s instructions. Analysis of the obtained data was performed using the Compass for SW 4.1.0 software, Microsoft Excel, and the GraphPad Prism 9.2.0 software. Ratios were calculated from the area under the curve of the respective detected signals.
# Twenty-four hours before the experiment, the growth medium was exchanged to medium with respective FBS or BSA concentration. Then, cells were stimulated by the addition of tumor necrosis factor alpha (TNF-α) (Sigma-Aldrich, St. Louis, Missouri, USA) for 30 min at 37°C, 5% CO2, followed by treatment with different zapnometinib concentrations and a DMSO (solvent) control for 1 h. For determination of the IC50 value in cells infected with IAV PR8 or SARS-CoV-2, cells were infected with the respective virus and treated with zapnometinib for 24 h as described in the “Virus yield reduction assay” section. After incubation, cell lysates were prepared, and the samples were analyzed by WES™ as described in the “Preparation of cell lysates and WES™ analysis” section. The pERK/ERK ratio was calculated and normalized to the solvent control. IC50 values were determined using the “log(inhibitor) vs. response -Variable slope (four parameters)” equation in GraphPad Prism version 9.4.0.
# [8] = system: IAV PR8 NP; assay type: cell-based; conditions: MOI 0.01, 24 h; for reduction of IAV PR8 NP (NP/ERK2 normalized to solvent control): both cell lines
smiles,measurement,setting,value
"O=C(O)c1ccc(F)c(F)c1Nc1ccc(I)cc1Cl [zapnometinib, 2-(2-chloro-4-iodophenylamino)-N-3,4-difluoro benzoic acid]",EC50,[1],31.3 µM
same,Infected cells (SARS-CoV-2 N positive) normalized to solvent control,[2],18.3%
same,amount of SARS-CoV-2 N,[2],reduced
same,distribution of the SARS-CoV-2 N,[2],did not change
same,reduction of SARS-CoV-2 N (N/ERK2 normalized to solvent control),[3]; 12.5 µM,approximately 50%
same,reduction of SARS-CoV-2 N (N/ERK2 normalized to solvent control),[3]; 50 µM,> 70%
same,reduction of SARS-CoV-2 N (N/ERK2 normalized to solvent control),[3]; 100 µM,> 80%
same,lowest concentration at which SARS-CoV-2 N was significantly reduced compared to solvent control,[3],12.5 µM
same,EC50,[4],4.19 µM
same,increase of TMPRSS2 expression,[5]; 50 µM,14%
same,increase of TMPRSS2 expression,[5]; 100 µM,17%
same,"efficacy in terms of the primary endpoint, phase II clinical trial",[6],clinically relevant efficacy profile
same,"safety profile, phase II clinical trial",[6],favorable safety profile
same,IC50,"[7]; Caco-2, Caco-2 cells, 0% FBS",0.04 µM
same,IC50,"[7]; Caco-2, Caco-2 cells, 0.2% BSA",4.32 µM
same,IC50,"[7]; Caco-2, Caco-2 cells, 5% FBS",4.46 µM
same,IC50,"[7]; Caco-2, Caco-2 cells, 10% FBS",9.15 µM
same,IC50,"[7]; Calu-3, Calu-3 cells, 0% FBS",0.06 µM
same,IC50,"[7]; Calu-3, Calu-3 cells, 0.2% BSA",5.33 µM
same,IC50,"[7]; Calu-3, Calu-3 cells, 5% FBS",6.64 µM
same,IC50,"[7]; Calu-3, Calu-3 cells, 10% FBS",8.25 µM
same,reduction of IAV PR8 NP (NP/ERK2 normalized to solvent control),[8]; 12.5 µM,approximately 50%
same,reduction of IAV PR8 NP (NP/ERK2 normalized to solvent control),[8]; 50 µM,> 70%
same,reduction of IAV PR8 NP (NP/ERK2 normalized to solvent control),[8]; 100 µM,> 80%
same,lowest concentration at which IAV PR8 NP was significantly reduced compared to solvent control,[8],0.39 µM
